The results in this text go back to patent US5705492A, “3'-O-aminoacyl ARA uridines, method of making, and antiviral activity” (Hoffmann-La Roche Inc., priority 1995, dated 1998).

Counter-ions that a name gives are not always drawn.

For assay [1], the target named is HSV-2 thymidine kinase (Human herpesvirus 2, UniProt P04407). Nature of the assay: inhibition of HSV-2 thymidine kinase. Format: biochemical. Particulars: 3H-thymidine phosphorylation, 37° C., 30 minutes, pH 8; read-out: IC50 against HSV-2 thymidine kinase. On the procedure: (§1) In this test procedure, the assay mixture contains 50 mmol Tris HCl, pH 8, 5 mmol magnesium chloride, 5 mmol ATP, 0.3 μmol ^3 H-thymidine (50 Ci/mmol), suitably diluted enzyme preparation and various concentrations of test compounds in a total volume of 100 μl. Assays are incubated at 37° C. for 30 minutes and the reaction is terminated by immersion in a boiling water bath for 2 minutes. 85 μl aliquots from each assay are then dried on to DEAE-cellulose paper discs and the unphosphorylated ^3 H-thymidine is removed by washing in 4 mmol ammonium formate. The radioactivity remaining bound to the discs is then measured by scintillation spectrophotometry. The degree of inhibition at each concentration of test compound is expressed as a percentage of the control reaction (100%) after subtracting a measured blank value which represents the amount of radioactivity bound to the disc from a reaction containing heat-inactivated enzymes. The IC50 value, namely the concentration of test compound which inhibits enzyme activity by 50%, is then calculated.
HSV-2 thymidine kinase, sequence (P04407 whole entry): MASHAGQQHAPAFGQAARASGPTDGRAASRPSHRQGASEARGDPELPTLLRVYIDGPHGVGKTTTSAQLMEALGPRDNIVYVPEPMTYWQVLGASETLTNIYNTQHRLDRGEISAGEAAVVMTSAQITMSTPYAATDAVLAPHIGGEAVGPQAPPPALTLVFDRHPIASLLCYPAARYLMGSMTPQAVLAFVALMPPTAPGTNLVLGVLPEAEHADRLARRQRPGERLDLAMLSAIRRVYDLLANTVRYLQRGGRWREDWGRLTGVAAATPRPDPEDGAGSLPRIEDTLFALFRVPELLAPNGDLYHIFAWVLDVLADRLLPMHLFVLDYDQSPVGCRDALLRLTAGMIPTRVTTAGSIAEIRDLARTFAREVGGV

Assay [2] concerns the target HSV-1 thymidine kinase (Human herpesvirus 1, UniProt P0DTH5). Nature of the assay: inhibition of HSV-1 thymidine kinase. Particulars: 3H-thymidine phosphorylation, 37° C., 30 minutes, pH 8; read-out: IC50 against HSV-1 thymidine kinase. It counts as biochemical. On the procedure: as §1

HSV-1 thymidine kinase, sequence (P0DTH5 whole entry): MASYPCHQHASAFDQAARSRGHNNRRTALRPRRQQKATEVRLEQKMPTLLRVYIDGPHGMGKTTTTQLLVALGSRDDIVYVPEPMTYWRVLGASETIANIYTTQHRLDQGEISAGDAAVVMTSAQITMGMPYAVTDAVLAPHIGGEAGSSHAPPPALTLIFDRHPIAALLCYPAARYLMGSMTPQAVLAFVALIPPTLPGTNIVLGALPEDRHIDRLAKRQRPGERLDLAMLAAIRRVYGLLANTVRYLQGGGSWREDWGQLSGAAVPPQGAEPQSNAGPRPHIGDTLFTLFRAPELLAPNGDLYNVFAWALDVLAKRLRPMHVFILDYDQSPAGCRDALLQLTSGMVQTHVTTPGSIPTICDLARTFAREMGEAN

One may read the IC50 as the concentration needed to halve the response being measured. As to `CCc1cn([C@@H]2O[C@H](CNC(=O)[C@H](C)Oc3cc(OC)c(Cl)cc3Cl)[C@@H](OC(=O)[C@@H](N)C(C)C)[C@@H]2F)c(=O)[nH]c1=O` [Example 1, 1-[5-[2(S)-(2,4-dichloro-5-methoxyphenoxy)propionamido]-1,5-dideoxy-2-fluoro-3-O-L-valyl-β-D-arabinofuranosyl]-5-ethyluracil hydrochloride], the results for the IC50 in assay [1] and in assay [2] were 1.1 nM and 18 nM, respectively.
